According to ChEMBL document CHEMBL4673282, “Identification of a New Heterocyclic Scaffold for Inhibitors of the Polo-Box Domain of Polo-like Kinase 1” (J Med Chem, 2020):
Values after ≈ are worked out from the molar mass of the structure shown.

Test: Aqueous solubility of compound
Format: physicochemical
Settings: buffer

SMILES	solubility [mg/mL]
O=c1c2cc(N3CCOCC3)ccc2n2c(=S)[nH]nc2n1CCc1ccccc1	0.0034 (≈ 8.34 µM)
CN1CCN(CCn2c(=O)c3cc(F)ccc3n3c(=S)[nH]nc23)CC1	> 0.054
Cc1nnc2n(CCc3ccccc3)c(=O)c3cc(F)ccc3n12	0.011 (≈ 34.1 µM)
CS(=O)(=O)NCCCn1c(=O)c2cc(F)ccc2n2c(=S)[nH]nc12	0.034 (≈ 91.5 µM)
O=C(Cc1cccc(F)c1)NCCCn1c(=O)c2cc(F)ccc2n2c(=S)[nH]nc12	> 0.063
O=c1c2cc(F)ccc2n2c(=S)[nH]nc2n1CCc1ccccc1Cl	0.003 (≈ 8 µM)
CC(C)CNC(=O)CCn1c(=O)c2ccccc2n2c(=S)[nH]nc12	0.0308 (≈ 89.2 µM)
CC(C)(C)OC(=O)CC[C@H](N)C(=O)NCCOCCOCCOCCOCCC(=O)NCCCn1c(=O)c2cc(F)ccc2n2c(=S)[nH]nc12	> 0.107
CCOP(=O)(CCn1c(=O)c2cc(F)ccc2n2c(=S)[nH]nc12)OCC	> 0.059
CS(=O)(=O)NCCn1c(=O)c2cc(F)ccc2n2c(=S)[nH]nc12	> 0.053
CCCn1c(=O)c2ccccc2n2c(=S)n(CN(CC)CC3CC3)nc12	0.0087 (≈ 23.4 µM)
NC1CCC(C(=O)NCCCn2c(=O)c3cc(F)ccc3n3c(=S)[nH]nc23)CC1 (racemic)	0.0388 (≈ 92.7 µM)
O=C(NCCCn1c(=O)c2cc(F)ccc2n2c(=S)[nH]nc12)C1CCCCN1 (racemic)	> 0.06
CC(C)n1c(=O)c2ccccc2n2c(=S)[nH]nc12	0.0195 (≈ 74.9 µM)
O=C(NCCCn1c(=O)c2cc(F)ccc2n2c(=S)[nH]nc12)C1CCNCC1	> 0.06
CC(C)NC(=O)CCn1c(=O)c2cc(Cl)ccc2n2c(=S)[nH]nc12	0.0081 (≈ 22.1 µM)
CC(C)(C)OC(=O)N1CC(CCn2c(=O)c3cc(F)ccc3n3c(=S)[nH]nc23)C1	0.015 (≈ 35.8 µM)
COc1ccccc1CC(=O)NCCCn1c(=O)c2cc(F)ccc2n2c(=S)[nH]nc12	> 0.065
N[C@@H](CCC(=O)O)C(=O)NCCCn1c(=O)c2cc(F)ccc2n2c(=S)[nH]nc12	0.032 (≈ 75.8 µM)
O=c1c2cc(F)ccc2n2c(=S)[nH]nc2n1CCc1ccncc1	0.0109 (≈ 31.9 µM)
O=c1c2cc(F)ccc2n2c(=S)[nH]nc2n1CCP(=O)(O)O	> 0.051

Test: Half life in rat liver microsomes at 1 uM measured up to 60 mins in presence of NADPH generating system
Settings: 1 h

SMILES	t1/2 [min]
O=C(Cc1ccc(F)cc1)NCCCn1c(=O)c2cc(F)ccc2n2c(=S)[nH]nc12	26.3
O=C(Cc1ccccc1C(F)(F)F)NCCCn1c(=O)c2cc(F)ccc2n2c(=S)[nH]nc12	3.7
O=c1c2cc(F)ccc2n2c(=S)[nH]nc2n1CCc1ccccc1	> 30
O=C(Cc1cccnc1)NCCCn1c(=O)c2cc(F)ccc2n2c(=S)[nH]nc12	> 30
O=C(Cc1ccc(O)cc1)NCCCn1c(=O)c2cc(F)ccc2n2c(=S)[nH]nc12	> 30
CC(C)(C)OC(=O)Nc1ccc(CC(=O)NCCCn2c(=O)c3cc(F)ccc3n3c(=S)[nH]nc23)cc1	> 30
O=C(Cc1ccccn1)NCCCn1c(=O)c2cc(F)ccc2n2c(=S)[nH]nc12	> 30
O=C(NCCCn1c(=O)c2cc(F)ccc2n2c(=S)[nH]nc12)c1ccc(Cn2ccnc2)cc1	> 30
N#Cc1ccccc1CC(=O)NCCCn1c(=O)c2cc(F)ccc2n2c(=S)[nH]nc12	> 30
O=c1c2cc(N3CCOCC3)ccc2n2c(=S)[nH]nc2n1CCc1ccccc1	> 30
CN1CCN(CCn2c(=O)c3cc(F)ccc3n3c(=S)[nH]nc23)CC1	> 30
Cc1nnc2n(CCc3ccccc3)c(=O)c3cc(F)ccc3n12	10.7
CS(=O)(=O)NCCCn1c(=O)c2cc(F)ccc2n2c(=S)[nH]nc12	> 30
O=C(Cc1cccc(F)c1)NCCCn1c(=O)c2cc(F)ccc2n2c(=S)[nH]nc12	26.5
O=c1c2cc(F)ccc2n2c(=S)[nH]nc2n1CCc1ccccc1Cl	22.8
CCCn1c(=O)c2ccccc2n2c(=S)[nH]nc12	> 30

SMILES	t1/2 [min]
CC(C)(C)OC(=O)CC[C@H](N)C(=O)NCCOCCOCCOCCOCCC(=O)NCCCn1c(=O)c2cc(F)ccc2n2c(=S)[nH]nc12	> 30
COc1ccc(CC(=O)NCCCn2c(=O)c3cc(F)ccc3n3c(=S)[nH]nc23)cc1	> 30
CCOP(=O)(CCn1c(=O)c2cc(F)ccc2n2c(=S)[nH]nc12)OCC	> 30
CS(=O)(=O)NCCn1c(=O)c2cc(F)ccc2n2c(=S)[nH]nc12	> 30
NC1CCC(C(=O)NCCCn2c(=O)c3cc(F)ccc3n3c(=S)[nH]nc23)CC1 (racemic)	> 30
O=C(NCCCn1c(=O)c2cc(F)ccc2n2c(=S)[nH]nc12)C1CCCCN1 (racemic)	> 30
O=C(Cc1cccc(C(F)(F)F)c1)NCCCn1c(=O)c2cc(F)ccc2n2c(=S)[nH]nc12	17.3
NCCCn1c(=O)c2cccc(F)c2n2c(=S)[nH]nc12	> 30
O=C(NCCCn1c(=O)c2cc(F)ccc2n2c(=S)[nH]nc12)C1CCNCC1	> 30
N#Cc1ccc(CC(=O)NCCCn2c(=O)c3cc(F)ccc3n3c(=S)[nH]nc23)cc1	> 30
Cc1ccc(CC(=O)NCCCn2c(=O)c3cc(F)ccc3n3c(=S)[nH]nc23)cc1	23.9
O=C(Cc1ccccc1)NCCCn1c(=O)c2cc(F)ccc2n2c(=S)[nH]nc12	18.7
O=C(Cc1ccncc1)NCCCn1c(=O)c2cc(F)ccc2n2c(=S)[nH]nc12	> 30
COc1ccccc1CC(=O)NCCCn1c(=O)c2cc(F)ccc2n2c(=S)[nH]nc12	16.1
N[C@@H](CCC(=O)O)C(=O)NCCCn1c(=O)c2cc(F)ccc2n2c(=S)[nH]nc12	> 30
O=c1c2cc(F)ccc2n2c(=S)[nH]nc2n1CCc1ccncc1	> 30

Test: in vitro
Settings: PAMPA
Description: Permeability of the compound by PAMPA

SMILES	Papp [nm/s]
O=c1c2cc(F)ccc2n2c(=S)[nH]nc2n1CCc1ccccc1	770
O=C(Cc1ccncc1)NCCCn1c(=O)c2cc(F)ccc2n2c(=S)[nH]nc12	< 10
CC(C)(C)OC(=O)N1CC(CCn2c(=O)c3cc(F)ccc3n3c(=S)[nH]nc23)C1	2290
